Test results published in US5466671A, “Apidaecin-type peptide antibiotics with improved activities and/or different antibacterial spectrum” (priority 1994, dated 1995).
Residues, ends and D or L forms follow the SMILES beside them.

Columns and labels:
[1] = tested on: Escherichia coli (ATCC11775); test: Inhibition zone assay (agar plate); type: cell-based; details: for Inhibition zones: in mm diameter: 50 nanomoles per well (3 mm diameter)
[2] = tested on: Enterobacter cloacae; test: Inhibition zone assay (agar plate); type: cell-based; details: for Inhibition zones: in mm diameter: 50 nanomoles per well (3 mm diameter)
[3] = tested on: Erwinia amylovora; test: Inhibition zone assay (agar plate); type: cell-based; details: for Inhibition zones: in mm diameter: 50 nanomoles per well (3 mm diameter)
[4] = tested on: Klebsiella pneumoniae; test: Inhibition zone assay (agar plate); type: cell-based; details: for Inhibition zones: in mm diameter: 50 nanomoles per well (3 mm diameter)
[5] = tested on: Morganella morganii; test: Inhibition zone assay (agar plate); type: cell-based; details: 50 nanomoles/well, 3 mm wells
[6] = tested on: Salmonella typhimurium; test: Inhibition zone assay (agar plate); type: cell-based; details: for Inhibition zones: in mm diameter: 50 nanomoles per well (3 mm diameter)
[7] = tested on: Salmonella typhi; type: cell-based; details: for Inhibition zones: in mm diameter: 50 nanomoles per well (3 mm diameter)
[8] = tested on: Shigella dysenteriae; type: cell-based; details: for Inhibition zones: in mm diameter: 50 nanomoles per well (3 mm diameter)
[9] = tested on: Yersinia enterocolitica; test: Inhibition zone assay (agar plate); type: cell-based; details: 50 nanomoles/well, 3 mm wells
[10] = tested on: Pseudomonas syringae; test: Inhibition zone assay (agar plate); type: cell-based; details: for Inhibition zones: in mm diameter: 50 nanomoles per well (3 mm diameter)
[11] = tested on: Rhizobium meliloti; test: Inhibition zone assay (agar plate); type: cell-based; details: 50 nanomoles/well, 3 mm wells
[12] = tested on: E. coli Apid^R; test: Minimal inhibitory concentration (liquid culture); type: cell-based; details: a-b = highest concentration with growth - lowest without growth
Source text: For details see `Experimental Procedures`.

[13] = tested on: E. coli 11775; test: Minimal inhibitory concentration (liquid culture); details: a-b = highest concentration with growth - lowest without growth
[14] = tested on: E. coli 23802; test: Minimal inhibitory concentration (liquid culture); details: inoculum 5000 CFU/ml; a-b = highest concentration with growth - lowest without growth
[15] = tested on: E. coli 25922; test: Minimal inhibitory concentration (liquid culture); details: inoculum 1100 CFU/ml; a-b = highest concentration with growth - lowest without growth
[16] = tested on: S. typhimurium; test: Minimal inhibitory concentration (liquid culture); details: inoculum 8 × 10^6 CFU/ml; a-b = highest concentration with growth - lowest without growth
[17] = tested on: A. calcoaceticus; test: Minimal inhibitory concentration (liquid culture); details: inoculum 16 × 10^6 CFU/ml; a-b = highest concentration with growth - lowest without growth
[18] = tested on: M. morganii; test: Minimal inhibitory concentration (liquid culture); details: inoculum 400 CFU/ml; a-b = highest concentration with growth - lowest without growth
[19] = tested on: Y. enterocolitica; test: Minimal inhibitory concentration (liquid culture); details: inoculum 5000 CFU/ml; a-b = highest concentration with growth - lowest without growth
[20] = tested on: Agrobacterium tumefaciens; test: Inhibition zone assay (agar plate); type: cell-based; details: 50 nanomoles per well (3 mm diameter)
[21] = tested on: E. coli D22; type: cell-based; details: 50 nanomoles per well (3 mm diameter)
[22] = tested on: Acinetobacter calcoaceticus; test: Inhibition zone assay (agar plate); type: cell-based; details: 50 nanomoles per well (3 mm diameter)
[23] = agar plate, 50 nanomoles/well, 3 mm wells

## CC(C)C[C@H](NC(=O)[C@H](CCCNC(=N)N)NC(=O)[C@@H]1CCCN1C(=O)[C@H](Cc1c[nH]cn1)NC(=O)[C@@H]1CCCN1C(=O)[C@@H]1CCCN1C(=O)[C@H](CCCNC(=N)N)NC(=O)[C@@H]1CCCN1C(=O)[C@@H]1CCCN1C(=O)[C@@H](NC(=O)[C@H](CCC(N)=O)NC(=O)[C@H](CCC(N)=O)NC(=O)[C@@H]1CCCN1C(=O)[C@@H](N)CCCNC(=N)N)C(C)C)C(=O)O [Ho -, Arg--Pro--Gln--Gln--Val--Pro--Pro--Arg--Pro--Pro--His--Pro--Arg--Leu] (H-RPQQVPPRPPHPRL-OH)
[1]; [23]
  inhibition zone diameter (number of plus signs): +++ ((+++) 10-14 mm)
[2]; [23]
  inhibition zone diameter (number of plus signs): + ((+) 5-6 mm)
[3]; [23]
  inhibition zone diameter (number of plus signs): ++ ((++) 7-9 mm)
[4]; [23]
  inhibition zone diameter (number of plus signs): + ((+) 5-6 mm)
[5]
  inhibition zone diameter (number of plus signs): ++ ((++) 7-9 mm)
[6]; [23]
  inhibition zone diameter (number of plus signs): + ((+) 5-6 mm)
[7]; [23]
  inhibition zone diameter (number of plus signs): + ((+) 5-6 mm)
[8]; [23]
  inhibition zone diameter (number of plus signs): + ((+) 5-6 mm)
[9]
  inhibition zone diameter (number of plus signs): ++ ((++) 7-9 mm)
[10]; [23]
  inhibition zone diameter (number of plus signs): +++ ((+++) 10-14 mm)
[11]
  inhibition zone diameter (number of plus signs): ++++ ((++++) 15-19 mm)
[12]; inoculum 12 × 10^6 CFU/ml
  minimal inhibitory concentration (MIC): > 40 µg/mL
[12]; inoculum 1000 CFU/ml
  minimal inhibitory concentration (MIC): > 40 µg/mL
[13]; inoculum 16 × 10^6 CFU/ml
  minimal inhibitory concentration (MIC): 10 to 20 µg/mL
[13]; inoculum 1200 CFU/ml
  minimal inhibitory concentration (MIC): 0.5 to 1 µg/mL
[14]
  minimal inhibitory concentration (MIC): > 40 µg/mL
[15]
  minimal inhibitory concentration (MIC): 10 to 20 µg/mL
[16]
  minimal inhibitory concentration (MIC): 5 to 10 µg/mL
[17]
  minimal inhibitory concentration (MIC): > 20 µg/mL
[18]
  minimal inhibitory concentration (MIC): 10 to 20 µg/mL
[19]
  minimal inhibitory concentration (MIC): 10 to 20 µg/mL

## CC(C)C[C@H](NC(=O)[C@H](CCCNC(=N)N)NC(=O)[C@@H]1CCCN1C(=O)[C@H](Cc1c[nH]cn1)NC(=O)[C@@H]1CCCN1C(=O)[C@@H]1CCCN1C(=O)[C@H](CCCNC(=N)N)NC(=O)[C@@H]1CCCN1C(=O)[C@@H]1CCCN1C(=O)[C@@H](NC(=O)[C@H](CCC(N)=O)NC(=O)[C@H](CCC(N)=O)NC(=O)[C@@H]1CCCN1C(=O)[C@H](CCCNC(=N)N)NC(=O)[C@@H]1CCCN1C(=O)[C@H](CCCCN)NC(=O)[C@@H](N)Cc1ccccc1)C(C)C)C(=O)O [HoFP, F K P R P Q Q V P P R P P H P R L] (H-FKPRPQQVPPRPPHPRL-OH)
[1]
  Inhibition zones: in mm diameter: 13 mm
[2]
  Inhibition zones: in mm diameter: 14 mm
[3]
  Inhibition zones: in mm diameter: 11 mm
[4]
  Inhibition zones: in mm diameter: 14 mm
[6]
  Inhibition zones: in mm diameter: 12 mm
[7]
  Inhibition zones: in mm diameter: 13 mm
[8]
  Inhibition zones: in mm diameter: 18 mm
[20]
  Inhibition zones: in mm diameter: 11 mm
[10]
  Inhibition zones: in mm diameter: 12 mm
[21]
  Inhibition zones: in mm diameter: 16 mm

## CC[C@H](C)[C@H](NC(=O)[C@@H]1CCCN1C(=O)[C@@H](NC(=O)[C@H](CCC(N)=O)NC(=O)[C@@H]1CCCN1C(=O)[C@H](CO)NC(=O)[C@@H]1CCCN1C(=O)[C@H](CCCNC(=N)N)NC(=O)[C@@H](N)CO)C(C)C)C(=O)N[C@@H](CCCNC(=N)N)C(=O)N1CCC[C@H]1C(=O)N[C@@H](CO)C(=O)N[C@@H](CCC(N)=O)C(=O)N1CCC[C@H]1C(=O)N[C@@H](CCCNC(=N)N)C(=O)N1CCC[C@H]1C(=O)N[C@@H](CCC(N)=O)C(=O)N1CCC[C@H]1C(=O)N[C@@H](Cc1ccccc1)C(=O)N[C@@H](CCCCN)C(=O)N1CCC[C@H]1C(=O)N[C@@H](CCCNC(=N)N)C(=O)N1CCC[C@H]1C(=O)N[C@@H](CCC(N)=O)C(=O)N[C@@H](CCC(N)=O)C(=O)N[C@H](C(=O)N1CCC[C@H]1C(=O)N1CCC[C@H]1C(=O)N[C@@H](CCCNC(=N)N)C(=O)N1CCC[C@H]1C(=O)N1CCC[C@H]1C(=O)N[C@@H](Cc1c[nH]cn1)C(=O)N1CCC[C@H]1C(=O)N[C@@H](CCCNC(=N)N)C(=O)N[C@@H](CC(C)C)C(=O)O)C(C)C [PAB-FP, SRPSPQVPIRPSQPRPQPFKPRPQQVPPRPPHPRL] (H-SRPSPQVPIRPSQPRPQPFKPRPQQVPPRPPHPRL-OH)
[1]
  Inhibition zones: in mm diameter: 10 mm
[2]
  Inhibition zones: in mm diameter: 11 mm
[3]
  Inhibition zones: in mm diameter: 5 mm
[4]
  Inhibition zones: in mm diameter: 8 mm
[6]
  Inhibition zones: in mm diameter: 7 mm
[7]
  Inhibition zones: in mm diameter: 13 mm
[8]
  Inhibition zones: in mm diameter: 12 mm
[22]
  Inhibition zones: in mm diameter: 8 mm
[20]
  Inhibition zones: in mm diameter: 7 mm
[21]
  Inhibition zones: in mm diameter: 14 mm

## CC[C@H](C)[C@H](NC(=O)[C@@H]1CCCN1C(=O)[C@@H](NC(=O)[C@H](CCC(N)=O)NC(=O)[C@@H]1CCCN1C(=O)[C@H](CO)NC(=O)[C@@H]1CCCN1C(=O)[C@H](CCCNC(=N)N)NC(=O)[C@@H](N)CO)C(C)C)C(=O)N[C@@H](CCCNC(=N)N)C(=O)N1CCC[C@H]1C(=O)N[C@@H](CO)C(=O)N[C@@H](CCC(N)=O)C(=O)N1CCC[C@H]1C(=O)N[C@@H](CCCNC(=N)N)C(=O)N1CCC[C@H]1C(=O)N[C@@H](CCC(N)=O)C(=O)N1CCC[C@H]1C(=O)NCC(=O)N[C@@H](CCCCN)C(=O)N1CCC[C@H]1C(=O)N[C@@H](CCCNC(=N)N)C(=O)N1CCC[C@H]1C(=O)N[C@@H](CCC(N)=O)C(=O)N[C@@H](CCC(N)=O)C(=O)N[C@H](C(=O)N1CCC[C@H]1C(=O)N1CCC[C@H]1C(=O)N[C@@H](CCCNC(=N)N)C(=O)N1CCC[C@H]1C(=O)N1CCC[C@H]1C(=O)N[C@@H](Cc1c[nH]cn1)C(=O)N1CCC[C@H]1C(=O)N[C@@H](CCCNC(=N)N)C(=O)N[C@@H](CC(C)C)C(=O)O)C(C)C [PAB-GP, SRPSPQVPIRPSQPRPQPGKPRPQQVPPRPPHPRL] (H-SRPSPQVPIRPSQPRPQPGKPRPQQVPPRPPHPRL-OH)
[1]
  Inhibition zones: in mm diameter: 10 mm
[2]
  Inhibition zones: in mm diameter: 13 mm
[3]
  Inhibition zones: in mm diameter: 5 mm
[4]
  Inhibition zones: in mm diameter: 9 mm
[6]
  Inhibition zones: in mm diameter: 6 mm
[7]
  Inhibition zones: in mm diameter: 13 mm
[8]
  Inhibition zones: in mm diameter: 11 mm
[22]
  Inhibition zones: in mm diameter: 9 mm
[20]
  Inhibition zones: in mm diameter: 8 mm
[10]
  Inhibition zones: in mm diameter: 6 mm
[21]
  Inhibition zones: in mm diameter: 14 mm

## CC[C@H](C)[C@H](NC(=O)[C@@H]1CCCN1C(=O)[C@@H](NC(=O)[C@H](CCC(N)=O)NC(=O)[C@@H]1CCCN1C(=O)[C@H](CO)NC(=O)[C@@H]1CCCN1C(=O)[C@H](CCCNC(=N)N)NC(=O)[C@@H](N)CO)C(C)C)C(=O)N[C@@H](CCCNC(=N)N)C(=O)N1CCC[C@H]1C(=O)N[C@@H](CO)C(=O)N[C@@H](CCC(N)=O)C(=O)N1CCC[C@H]1C(=O)N[C@@H](CCCNC(=N)N)C(=O)N1CCC[C@H]1C(=O)N[C@@H](CCC(N)=O)C(=O)N1CCC[C@H]1C(=O)NCC(=O)N[C@@H](CCCCN)C(=O)N1CCC[C@H]1C(=O)N[C@@H](CCCNC(=N)N)C(=O)N1CCC[C@H]1C(=O)N[C@@H](CCC(N)=O)C(=O)N[C@@H](CCC(N)=O)C(=O)N[C@H](C(=O)N1CCC[C@H]1C(=O)N1CCC[C@H]1C(=O)N[C@@H](CCCNC(=N)N)C(=O)N[C@H](C(=O)N1CCC[C@H]1C(=O)N[C@@H](Cc1c[nH]cn1)C(=O)N1CCC[C@H]1C(=O)N[C@@H](CCCNC(=N)N)C(=O)N[C@@H](CC(C)C)C(=O)O)[C@@H](C)O)C(C)C [PAB-GT, SRPSPQVPIRPSQPRPQPGKPRPQQVPPRTPHPRL] (H-SRPSPQVPIRPSQPRPQPGKPRPQQVPPRTPHPRL-OH)
[1]
  Inhibition zones: in mm diameter: 8 mm
[2]
  Inhibition zones: in mm diameter: 9 mm
[3]
  Inhibition zones: in mm diameter: 6 mm
[4]
  Inhibition zones: in mm diameter: 8 mm
[6]
  Inhibition zones: in mm diameter: 6 mm
[7]
  Inhibition zones: in mm diameter: 12 mm
[8]
  Inhibition zones: in mm diameter: 10 mm
[22]
  Inhibition zones: in mm diameter: 8 mm
[20]
  Inhibition zones: in mm diameter: 5 mm
[10]
  Inhibition zones: in mm diameter: 5 mm
[21]
  Inhibition zones: in mm diameter: 13 mm

## QVPIRPSQPRPQPFKPRPQQVPPRTPHPR (QVPIRPSQPRPQPFKPRPQQVPPRTPHPR) [PAB-FT 6-35]
[1]
  Inhibition zones: in mm diameter: 13 mm
[2]
  Inhibition zones: in mm diameter: 12 mm
[4]
  Inhibition zones: in mm diameter: 11 mm
[6]
  Inhibition zones: in mm diameter: 8 mm
[7]
  Inhibition zones: in mm diameter: 14 mm
[8]
  Inhibition zones: in mm diameter: 12 mm
[22]
  Inhibition zones: in mm diameter: 10 mm
[21]
  Inhibition zones: in mm diameter: 14 mm

## SQPRPQPFKPRPQQVPPRTPHPR (SQPRPQPFKPRPQQVPPRTPHPR) [PAB-FT 12-35]
[1]
  Inhibition zones: in mm diameter: 10 mm
[2]
  Inhibition zones: in mm diameter: 11 mm
[4]
  Inhibition zones: in mm diameter: 6 mm
[7]
  Inhibition zones: in mm diameter: 5 mm
[8]
  Inhibition zones: in mm diameter: 11 mm
[21]
  Inhibition zones: in mm diameter: 10 mm
